A short description of data set [1]: Artificial membrane permeability assay (AMPA). Type of data set: in vitro ADME. The note with it: 10 μM, pH 7.05, 3 h. As for the experimental part: It is a 96-well plate-based assay that measures the speed of permeation of a compound (at 10 μM concentration) through a phospholipid membrane, consisting in 1.8% egg L-a-phosphatidylcholine (830051, Avanti Polar Lipids) and 1% cholesterol (C8667, Sigma) dissolved in n-decane (D0011, TCI American). Phosphate buffer (50 mM Na2HPO4 with 0.5% 2-hydroxypropyl-b-cyclodextrin), pH 7.05, is added to the top and bottom of the plate (S5EJ046I08, MilliPore Corp.). The lipids are allowed to form bilayers across the small holes in the filter and compound concentration is measured 3 h later in both donor and the acceptor compartments by HPLC (Agilent 1100 LC). Permeability (P) (nm s^−1) is calculated using the following formulas:
where X=VD/VR; CR and CD are final concentrations in receiver and donor side, respectively; VR and VD are volumes in receiver and donor compartment, respectively; A is the area (cm^2) and t is the incubation time (s). The considered cut-off values are as follows: High: P>200 nm s^−1; Medium: 10 nm s^−1<P<200 nm s^−1; Low: P<10 nm s^−1.

Data set [2] has as its system Plasmodium berghei asexual blood stages. The data set is described as follows: In vivo antimalarial therapeutic efficacy, P. berghei murine model. The arrangement: species or system CD1 mice. As for the experimental part:
Two out of the six compounds progressed to SMFA, TCMDC-123767 (cluster 30) and TCMDC-141154 (cluster 4), were evaluated in vivo in the Plasmodium berghei murine model. Selection criteria was based on the compound potencies in both asexual stages and gametocytes in the Pf FGAA, as well as on their transmission-blocking activity observed in the SMFA (Table 1). Owing to compound availability, TCMDC-141154 had to be replaced by a close analogue from cluster 4: TCMDC-140549 (Supplementary Data 3). Compounds were tested at 50 mg kg^−1 single dose 2-day oral treatment and efficacy was measured as a reduction of asexual blood stages parasitaemia greater than 40% compared with the vehicle-treated mice.
Pathogen-free CD1 mice (Hsd:ICR) were obtained from Harlan Interfauna Iberica (Barcelona, Spain). Eight weeks old female CD-1 mice were infected intravenously with 10^7 infected erythrocytes (day 0). Dosing solutions were prepared in water containing 5% DMSO/20% Captisol, at a target dose of 50 mg kg^−1. Mice received two oral doses once a day according to their body weight (20 ml kg^−1) starting at day 2 after infection. Control mice received the same treatment schedule with the vehicle used for the compound preparation. Samples from mice peripheral blood were taken before starting treatment and 24 h after finishing the dosing, to measure parasitaemia by flow cytometry, using the YOYO-1 staining, to assess the reduction of parasitaemia compared with the vehicle-treated mice.

In data set [3] the test system is P. falciparum female gametes. The data set is described as follows: Pf FGAA with compounds added 30 min after triggering gametocyte activation (gamete-targeting). The class given is cell-based, Plasmodium falciparum NF54. The note with it: 0h incubation time.
The subject of data set [4] is P. falciparum stage V female gametocytes. The data set is described as follows: P. falciparum female gametocyte activation assay (Pf FGAA), 24 h or 48 h preincubation, Pfs25 expression readout. The class given is cell-based, Plasmodium falciparum NF54. To be noted: for Pf FGAA classification: SLOW / FAST / GAMETE from activity at 48h, 24h, 0h incubation. Put shortly: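 Purified stage V gametocytes from P. falciparum NF54 gametocyte cultures were exposed to compounds for 24 h or 48 h at 37 °C under 3% O2/5% CO2, then activated by temperature drop plus xanthurenic acid. Activated females were stained with Cy3-anti-Pfs25 (0.5 μg ml^−1) for 24 h at 26 °C and counted by high-content imaging; pIC50 by nonlinear regression.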

The test system of data set [5] is HepG2 cells. The data set is described as follows: HepG2 cytotoxicity assay. The class given is cell-based. The method, boiled down:
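Post-incubation CellTiter-Glo luminescence; 30 min RT equilibration, 10 min RT stabilization before reading.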

Data set [6] has as its system P. falciparum stages IV–V gametocytes. The data set is described as follows: Gametocytocidal ATP-depletion assay (gametocyte ATP bioluminescence). Type of data set: cell-based, Plasmodium falciparum. Put shortly:
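Purified stage IV–V gametocytes (12,500/well) incubated with compound for 48 h at 37 °C under 3% O2/5% CO2. ATP measured by BacTiter-Glo luminescence as a viability surrogate; hits tested at 2 μM single concentration.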

The subject of data set [7] is P. falciparum asexual blood stages. To be noted: TCAMS data, cited from earlier work; for IC50: ref 1 (Gamo et al., 2010), read-out: Pf Asexual blood stages XC50; for Pf Asexual stages XC50: ref 1 (Gamo, F. J. et al., Nature 465, 305-310, 2010).

For orientation: ED50 means the midpoint of the dose-response relation. One may read the inhibition as the drop in the measured response relative to a control, in per cent.

Where two headings read alike, the source gives them in different places.

As to `CC(C)(C)CNCC(C)(C)c1nc(-c2ccc(Cl)c(O)c2)c(-c2ccncc2)[nH]1.Cl` [TCMDC-140549], the “permeability through artificial membranes” value in data set [1] was found to be 17 ×10⁻⁶ cm/s. For the same compound, the “reduction of asexual blood stages parasitaemia (threshold 40% vs vehicle)” value in data set [2] (50 mg kg^−1 single dose 2-day oral treatment, mice) is reported as “not reduced above the threshold”. Besides, the ED50 in data set [2] (single dose 2-day treatment, oral, P. berghei mice) is over 50 mg/kg. Moreover, the IC50 in data set [3] was 0.51 µM; in data set [4] (24h incubation time, read-out: Pf FGAA IC50 (µM) 24h), 3.56 µM; in data set [4] (mean, read-out: Gametocytes mean Pf FGAA IC50), 1.01 µM; in data set [7], 600 nM. Moreover, the “Pf FGAA classification” value in data set [4] is listed as “GAMETE”. The “HepG2 cells mean TOX50” value in data set [5] is reported as 11.63 µM. Also, the “Gametocytes mean ATP inhibition at 2µM (%)” value in data set [6] is listed as -11.46%. In addition, the “Pf Asexual stages XC50” value in data set [7] is 600 nM.

Turning to `CN(C)CCCNCc1cn(S(=O)(=O)c2ccccc2Cl)c2ccccc12` [TCMDC-136302], the IC50 in data set [3] (Plasmodium falciparum) is over 20 µM; in data set [4] (Plasmodium falciparum, 24h incubation time, read-out: Pf FGAA IC50 (µM) 24h), 0.51 µM; in data set [4] (Plasmodium falciparum, mean, read-out: Gametocytes mean Pf FGAA IC50), 1.84 µM; in data set [7] it was 1070 nM. For the same compound, in data set [4], the “Pf FGAA classification” value was “FAST”. Further, in data set [5] (HepG2 TOX50 vs Pf FGAA IC50), the Selectivity ratio was 6.39. Besides, the “HepG2 cells mean TOX50” value in data set [5] stood at 11.78 µM. Moreover, the inhibition at 2 µM in data set [6] (Plasmodium falciparum, mean) was 3.27%. Moreover, the “Pf Asexual stages XC50” value in data set [7] is 350 nM.

Source of the values: article PMC5442318, “Hundreds of dual-stage antimalarial molecules discovered by a functional gametocyte screen” (Nature Communications, 2017).
